Measured values from patent US20080085264A1, “METHODS FOR ENHANCING STEM CELL ENGRAFTMENT DURING TRANSPLANTATION” (priority 2003, published 2008).

How the values were obtained:
[1] = test system: BoyJ recipient mice; experiment: Short-term homing of donor Sca-1+lin- cells to recipient bone marrow; assay type: in vivo, mouse
Protocol: Control C57BL/6 (CD45.2^+), CD26 inhibitor treated C57BL/6 (CD45.2^+), or CD26^−/− (CD45.2^+) sorted Sca-1^+lin^− or LD donor BM cells were transplanted by tail-vein injection into lethally irradiated (1100 cGy split dose) congenic BoyJ (CD45.1^+) female recipient mice (Haneline L S, et al. Blood. 1999; 94:1-8.) Contribution of Sca^+lin^− donor cells in the context of Sca-1^+lin^− recipient cells was calculated by flow cytometric analysis of cells found in the recipient mouse BM by measuring CD45.1+ and CD45.2^+ on Sca-1^+lin^− LD cells isolated from the recipient mice 24 hours post transplant. […] Comparisons between treatment groups were made using a two-tailed Student's t-test and data was plotted as mean (M)±standard error of the mean (SEM).

[2] = test system: C57BL/6 mice; experiment: G-CSF induced mobilization of HSC/HPC in C57BL/6 mice (progenitor cell assays of peripheral blood); assay type: in vivo, mouse; conditions: for effect of scrambled peptides on mobilization: C57BL/6, data not shown
Protocol: (§1) Mobilization was achieved by treating mice with 2.5 μg (micrograms) G-CSF/mouse 2×/day s.c. for 2 days (Broxmeyer H E, et al. J Exp Med. 1999; 189:1987-1992). Mice simultaneously treated with a specific CD26 inhibitor also underwent treatment with either 5 μmol Diprotin A/mouse 2×/day s.c. for 2 days or 5 μmol Val-Pyr/mouse 2×/day s.c. for 2 days. Diprotin A was obtained commercially (Peptides International, Louisville, Ky.) and Val-Pyr was obtained as a gift from Nicolai Wagtmann (Novo Nordisk, Denmark). After either G-CSF or G-CSF plus CD26 inhibitor treatment peripheral blood cells were collected and total cellular nuclearity was measured and progenitor cell assays were performed using total peripheral blood cells.
(§2) One-hundred thousand mouse G-CSF mobilized peripheral blood cells were plated in triplicate for colony formation by CFU-GM, BFU-E, and CFU-GEMM and scored at 7 days incubation as previously described (Cooper S, Broxmeyer H E. Measurement of interleukin-3 and other hematopoietic growth factors, such as GM-CSF, G-CSF, M-CSF, erkythropoietin and the potent co-stimulating cytokines steel factor and FLt-3 ligand. In: Coligan J E K A, Margulies D H, Shevach E M, Strober E, Coico R, ed. Current protocols in immunology. New York: John Wiley & Sons; 1996:6.4.1-6.4.12). Cells were plated for colony formation in 1% methylcellulose culture medium containing 30% FBS, 1 U/ml recombinant(r) human Epo, 0.1 mM Hemin, 5% Pokeweed Mitogen Spleen Conditioned Media (PWMSCM), and 50 ng/ml rmouse Steel Factor (=Stem Cell Factor, SCF).

[3] = test system: DBA/2 mice; experiment: G-CSF induced mobilization of HSC/HPC in DBA/2 mice (progenitor cell assays of peripheral blood); assay type: in vivo, mouse
Protocol: as §1, §2

[4] = test system: BoyJ recipient mice; experiment: Non-competitive long-term engraftment; assay type: in vivo, mouse; conditions: six months post transplant, P<0.05, n=5
Protocol: Control C57BL/6 (CD45.2^+) or CD26 inhibitor treated C57BL/6 (CD45.2^+) LD donor BM cells were transplanted by tail-vein injection into lethally irradiated (1100 cGy split dose) congenic BoyJ (CD45.1^+) female recipient mice (Haneline L S, et al. Blood. 1999; 94:1-8). Contribution of donor cells was obtained by measuring the number of donor and residual recipient lymphocytes in the peripheral blood. The % donor contribution was calculated by flow cytometric analysis of peripheral blood lymphocytes found in the recipient mouse peripheral blood by measuring CD45.1^+ and CD45.2^+ on cells isolated from the recipient mice 1-6 months post transplant. No less than five mice from each recipient group were analyzed, each one having received a transplant of 5×10^5 pooled LD donor BM cells. Comparisons between treatment groups were made using a two-tailed Student's t-test and data was plotted as mean (M)±standard error of the mean (SEM).

[5] = test system: BoyJ irradiated mice; experiment: Competitive repopulation assay; assay type: in vivo, mouse; conditions: six months post transplant, 5×10^5 or 2.5×10^5 donor cells vs 5×10^5 competitor BoyJ cells
From the text: Donor LDBM cells (5×10^5) from representative mice from each test group were transplanted into lethally irradiated BoyJ mice (expressing CD45.1) Quantitative contribution to chimerism was obtained 2-6 months post-transplantation in the same manner described for long-term engraftment assays.
Eight week old female recipient mice were lethally irradiated (1100 cGy split dose) prior to transplantation as previously described (Haneline L S, et al. Blood. 1999; 94:1-8). Limiting dilutions of donor LD BM cells (5×10^5, 2.5×10^5, 1.25×10^5, and 0.625×10^5 cells) from control C57Bl/6 mice, CD26-inhibitor treated LD BM cells, or untreated LD BM cells from CD26^−/− mice (all expressing CD45.2) are co-transplanted with a constant number (5×10^5) of pooled competitive BM cells from congenic BoyJ mice (expressing CD45.1), into BoyJ irradiated mice. To determine quantitatively the relative cell contribution to chimerism of each test cell population tail-vein blood samples were obtained post-transplantation each month for three months and CD45.1 and CD45.2 was measured by flow-cytometry. Cells were divided into CD26 inhibitor (either Diprotin A or Val-Pyr) treated or untreated groups obtained from normal C57BL/6 mice and untreated cells obtained from CD26^−/− mice. […]

[6] = test system: C57BL/6 mice; experiment: G-CSF induced mobilization of HSC/HPC in C57BL/6 mice (progenitor cell assays of peripheral blood); assay type: in vivo; conditions: 5 μmol/mouse 2×/day s.c. alone, without G-CSF
[7] = test system: DBA/2 mice; experiment: G-CSF induced mobilization of HSC/HPC in DBA/2 mice (progenitor cell assays of peripheral blood); assay type: in vivo, mouse; conditions: without G-CSF
[8] = test system: CD26-/- mice; experiment: G-CSF induced mobilization of progenitors in CD26-/- mice; assay type: in vivo, mouse; conditions: CD26-/- mice on C57Bl/6 background
Protocol: as §1
as §2, with “Cells were plated for colony formation in 1% methylcellulose culture medium containing 30% FBS, 1 U/ml recombinant(r) human Epo, 0.1 mM Hemin, 5% Pokeweed Mitogen Spleen Conditioned Media (PWMSCM), and 50 ng/ml rmouse Steel Factor (=Stem Cell Factor, SCF).” left out

[9] = inhibitor 5 μmol/mouse 2×/day s.c. during G-CSF mobilization, C57BL/6
[10] = inhibitor treatment during G-CSF mobilization
[11] = 2.5 μg G-CSF/mouse 2×/day s.c., C57BL/6

With c1cc(CN2CCCNCCNCCCNCC2)ccc1CN1CCCNCCNCCCNCC1 [AMD3100] the “effect on the increase in homing efficiency generated by inhibition or loss of CD26” value ([1]; 10×10^6 LDBM donor cells treated with AMD3100 for 15 minutes prior to transplantation) was “reversed the increase in homing efficiency” and the “homing efficiency compared to control LDBM cells” value ([1]; AMD3100 treatment alone, no CD26 inhibitor) was “reduction in homing efficiency”.

CC(C)[C@H](N)C(=O)N1CCCC1 [Val-Pyr, Valine-Pyrrolidide] was tested, and the “reduction in BFU-E compared to G-CSF alone” value [2, 9] was 22%, the “reduction in CFU-GEMM compared to G-CSF alone” value [2, 9] was 62% and the “reduction in CFU-GM compared to G-CSF alone” value [2, 9] was 55%. For the same molecule, the “reduction in BFU-E compared to G-CSF alone” value [3, 10] was 49%, the “reduction in CFU-GEMM compared to G-CSF alone” value [3, 10] was 56% and the “reduction in CFU-GM compared to G-CSF alone” value [3, 10] was 52%. For the same molecule, the “short-term homing of donor cells” value ([1]; donor LDBM unit treated prior to transplant, P<0.01, n=6) was “significant increase in short-term homing”, the “donor cell contribution to the formation of peripheral blood leukocytes” value [4] was “Increased donor cell contribution” and the “donor contribution to chimerism” value [5] was “increased donor contribution to chimerism”. The “effect on the mobilization of progenitors, inhibitor alone” value [6] was “little or no effect” and the “effect on the mobilization of progenitors, inhibitor alone” value [7] was “little or no effect”.

In the case of Ile-Ile-Pro, the “effect of scrambled peptides on mobilization” value [2] is reported as “no effect”.

For Pro-Ile-Ile, the “effect of scrambled peptides on mobilization” value [2] was “no effect”.

B1: G-CSF: cytokine used to induce mobilization of HSC/HPC (protein, UniProt P09919 31-207, looked up)
Granulocyte …: TPLGPASSLPQSFLLKCLEQVRKIQGDGAALQEKLVSECATYKLCHPEELVLLGHSLGIPWAPLSSCPSQALQLAGCLSQLHSGLFLYQGLLQALEGISPELGPTLDTLQLDVADFATTIWQQMEELGMAPALQPTQGAMPAFASAFQRRAGGVLVASHLQSFLEVSYRVLRHLAQP
For B1, the “BFU-E mobilized to peripheral blood” value [2, 11] was 1027±107 BFU-E/ml, the “CFU-GEMM mobilized to peripheral blood” value [2, 11] was 442±35 CFU-GEMM/ml and the “CFU-GM mobilized to peripheral blood” value [2, 11] was 2348±249 CFU-GM/ml. The “BFU-E mobilized to peripheral blood” value ([3]; 2.5 μg G-CSF/mouse 2×/day s.c.) was 2219±141 BFU-E/ml, the “CFU-GEMM mobilized to peripheral blood” value ([3]; 2.5 μg G-CSF/mouse 2×/day s.c.) was 1186±163 CFU-GEMM/ml and the “CFU-GM mobilized to peripheral blood” value ([3]; 2.5 μg G-CSF/mouse 2×/day s.c.) was 8145±1038 CFU-GM/ml. The “mobilization of progenitor cells by G-CSF” value [8] was “low, but significant, mobilization”.
